Source: ChEMBL document CHEMBL1201862, “PubChem BioAssay data set” (2004)
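Cells were grown in 96-well plates and exposed to each compound for 48 hours at five concentrations; endpoints were interpolated linearly between bracketing concentrations, or set to the highest concentration if not reached. GI50 = concentration required for 50% inhibition of growth.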 Calls of active or inactive are those of the source. No stated cut-off is given here; in the data, active = GI50 up to about 1.1 µM and inactive = higher.

Experiments:
Experiment in all cases: growth of human tumour cells (NCI), 48 h
[1] = tested on: SN12C
[2] = tested on: CCRF-CEM
[3] = tested on: TK-10
[4] = tested on: HCT-15
[5] = tested on: EKVX
[6] = tested on: SW-620
[7] = tested on: A549
[8] = tested on: KM-20L2
[9] = tested on: SF-295
[10] = tested on: LXFL 529
[11] = tested on: SK-MEL-5
[12] = tested on: A498
[13] = tested on: NCI-H226
[14] = tested on: HCC 2998
[15] = tested on: KM12
[16] = tested on: XF498
[17] = tested on: SK-OV-3
[18] = tested on: NCI-H460
[19] = tested on: SNB-75
[20] = tested on: OVCAR-8
[21] = tested on: UACC-257
[22] = tested on: OVCAR-4
[23] = tested on: U-251
[24] = tested on: NCI-H23
[25] = tested on: HOP-18
[26] = tested on: COLO 205
[27] = tested on: CAKI-1
[28] = tested on: K562
[29] = tested on: DMS-273
[30] = tested on: RXF 393
[31] = tested on: RPMI-8226
[32] = tested on: SNB-78
[33] = tested on: OVCAR-3
[34] = tested on: SNB-19
[35] = tested on: 786-0
[36] = tested on: DMS-114
[37] = tested on: SR
[38] = tested on: SF-539
[39] = tested on: UACC-62
[40] = tested on: UO-31
[41] = tested on: Malme-3M
[42] = tested on: OVCAR-5
[43] = tested on: HT-29
[44] = tested on: LOX IMVI
[45] = tested on: NCI-H522
[46] = tested on: SF-268
[47] = tested on: HOP-92
[48] = tested on: DLD-1
[49] = tested on: HL-60
[50] = tested on: HCT-116
[51] = tested on: IGROV-1
[52] = tested on: M19-MEL
[53] = tested on: HOP-62
[54] = tested on: MOLT-4
[55] = tested on: M14
[56] = tested on: ACHN
[57] = tested on: SK-MEL-2
[58] = tested on: RXF 631
[59] = tested on: SK-MEL-28

Measured: GI50

CCCCCCCC(=O)NCC(O)CNC(=O)CCCCCCC
inactive: [1] > 100 µM | [2] 88.1 µM | [3] > 100 µM | [5] > 100 µM | [6] > 100 µM | [7] > 100 µM | [8] > 100 µM | [9] > 100 µM | [10] > 100 µM | [11] > 100 µM | [12] > 100 µM | [13] > 100 µM | [14] > 100 µM | [15] > 100 µM | [16] > 100 µM | [17] > 100 µM | [18] > 100 µM | [19] > 100 µM | [20] > 100 µM | [21] > 100 µM | [22] > 100 µM | [23] > 100 µM | [24] > 100 µM | [25] > 100 µM | [26] > 100 µM | [27] > 100 µM | [28] > 100 µM | [29] > 100 µM | [30] > 100 µM | [31] > 100 µM | [32] > 100 µM | [33] > 100 µM | [34] > 100 µM | [35] > 100 µM | [36] > 100 µM | [37] > 100 µM | [38] > 100 µM | [39] > 100 µM | [40] > 100 µM | [41] > 100 µM | [42] > 100 µM | [43] > 100 µM | [44] > 100 µM | [45] > 100 µM | [46] > 100 µM | [47] > 100 µM | [48] > 100 µM | [49] > 100 µM | [50] > 100 µM | [51] > 100 µM | [52] > 100 µM | [53] > 100 µM | [54] > 100 µM | [55] > 100 µM
> 100 µM: [4]

C=CCC1=C2CCCCC2CCC1=O (centres undefined)
> 100 µM: [4]
inactive: [1] > 100 µM | [2] > 100 µM | [3] > 100 µM | [5] > 100 µM | [6] > 100 µM | [7] > 100 µM | [9] > 100 µM | [10] > 100 µM | [56] > 100 µM | [11] > 100 µM | [12] > 100 µM | [15] > 100 µM | [16] > 100 µM | [17] > 100 µM | [18] > 100 µM | [19] > 100 µM | [20] > 100 µM | [21] > 100 µM | [22] > 100 µM | [23] > 100 µM | [24] > 100 µM | [26] > 100 µM | [27] > 100 µM | [28] > 100 µM | [29] > 100 µM | [30] > 100 µM | [57] > 100 µM | [58] > 100 µM | [31] > 100 µM | [32] > 100 µM | [33] > 100 µM | [34] > 100 µM | [35] > 100 µM | [36] > 100 µM | [38] > 100 µM | [39] > 100 µM | [40] > 100 µM | [41] > 100 µM | [42] > 100 µM | [44] > 100 µM | [45] > 100 µM | [46] > 100 µM | [48] > 100 µM | [49] > 100 µM | [50] > 100 µM | [59] > 100 µM | [51] > 100 µM | [52] > 100 µM | [53] > 100 µM | [54] > 100 µM | [55] > 100 µM

CC(C)(C)OC(=O)N1C2CCCC23O[C@@H]1c1cc2c(cc1C3=O)OCO2 (some centres undefined)
inactive: [1] 41.2 µM | [2] 21.1 µM | [3] 41 µM | [5] 43.9 µM | [6] 22.4 µM | [7] 29.4 µM | [9] 20.8 µM | [10] 44.3 µM | [56] 54.1 µM | [11] 4.41 µM | [12] > 10 µM | [13] 81.1 µM | [15] 14.4 µM | [16] 26.6 µM | [17] 27.3 µM | [18] 34 µM | [19] 12.6 µM | [20] 61.1 µM | [21] 52.8 µM | [22] > 100 µM | [23] 41.3 µM | [24] 24.9 µM | [27] 9.57 µM | [28] 6.5 µM | [29] 6.27 µM | [30] 24.5 µM | [57] 53.3 µM | [58] 27.2 µM | [32] > 100 µM | [33] 8.81 µM | [34] 39.2 µM | [35] 34.5 µM | [36] 19.9 µM | [37] 32.1 µM | [38] 19.5 µM | [39] 6.24 µM | [40] 39.6 µM | [41] 25.6 µM | [42] > 100 µM | [43] 14.5 µM | [45] 8.89 µM | [46] 41.8 µM | [47] 28.6 µM | [48] 27.1 µM | [49] 5.25 µM | [50] 36.3 µM | [59] 67.3 µM | [51] 20 µM | [52] 26.6 µM | [53] 23.6 µM | [54] 24.6 µM | [55] 12.3 µM
